Experimental findings from patent publication US11807693B2 (priority 2014, dated 2023) are described below.

What all share (assay type): in vitro ADME
A short description of data set [1]: In vitro stability in rat plasma. Put shortly:
(§1)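 Peptide remaining was followed by high-resolution LC-MS of methanol-quenched, centrifuged samples with internal standard. Incubations were at 37° C. over 4 hr, peptides at 5 μM final in rat plasma or in rat liver or kidney homogenate.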

Data set [2] can be described thus: In vitro stability in rat kidney homogenate. Particulars: rat, tissue homogenate. Here is the method:
Apelin peptides were spiked into rat plasma, liver homogenate, and kidney homogenate, which were obtained from commercial sources, to a final concentration of 5 μM. The samples were then incubated at 37° C. over a period of 4 hr. […] In a typical experiment, an aliquot of 100 μL of sample was taken from the incubation vial, followed by addition of 300 μL of MeOH containing internal standard. The quenched sample was centrifuged at 5500 g for 15 min after 15 min vortex in room temperature. The supernatant was then analyzed by high resolution LC-MS. […] In vitro plasma, […], and kidney stability results are shown below in Table 14.

The nature of data set [3]: In vitro stability in rat liver homogenate. The settings on record: tissue homogenate. Put shortly: as §1

Starred links: 1 amine or outer side, 2 acyl side, 3 side chain; linkers in the order of their positions; H or OH if unused. Non-standard residues stand in square brackets, D forms with d. Residues, ends and D or L forms follow the SMILES beside them. *: point of attachment. Oic = O=C(O)[C@@H]1C[C@@H]2CCCC[C@@H]2N1; Phe(4-Cl) = N[C@@H](Cc1ccc(Cl)cc1)C(=O)O; γGlu = O=C(O)[C@H](CCC(=O)[*:2])N[*:1]; d(β3hF) = N[C@@H](CC(=O)O)Cc1ccccc1; NMeR = CN[C@@H](CCCNC(=N)N)C(=O)O; Palmitoyl = CCCCCCCCCCCCCCCC(=O)*; Tridecanoyl = CCCCCCCCCCCCC(=O)*; hArg = N=C(N)NCCCC[C@H](N)C(=O)O; Cha = N[C@@H](CC1CCCCC1)C(=O)O; Aic = NC1(C(=O)O)Cc2ccccc2C1; αMeP = C[C@@]1(C(=O)O)CCCN1; β3hV = CC(C)[C@H](N)CC(=O)O; Pip = O=C(O)[C@@H]1CCCCN1; Nle = CCCC[C@H](N)C(=O)O; Hexanoyl = CCCCCC(=O)*; AEEA = NCCOCCOCC(=O)O; Aib = CC(C)(N)C(=O)O; Inp = O=C(O)C1CCNCC1

Turning to `CCCCCCCCCCCCCCCC(=O)N[C@@H](CCC(=O)NCCOCCOCC(=O)NCCOCCOCC(=O)N[C@H](CCC(N)=O)C(=O)N[C@@H](CCCNC(=N)N)C(=O)N1CCC[C@H]1C(=O)N(C)[C@@H](CCCNC(=N)N)C(=O)N[C@@H](CC1CCCCC1)C(=O)N[C@@H](CO)C(=O)N[C@@H](Cc1c[nH]cn1)C(=O)N[C@@H](CCCCN)C(=O)NCC(=O)N1[C@H](C(=O)N[C@@H](CCCC)C(=O)N2CCC(C(=O)N[C@@H](Cc3ccc(Cl)cc3)C(=O)O)CC2)C[C@@H]2CCCC[C@@H]21)C(=O)O` [compound 587] ({Palmitoyl-γGlu-AEEA-AEEA}-[dQ]RP[NMeR][Cha]SHKG[Oic][Nle][Inp][Phe(4-Cl)]-OH), the amount remaining at 4 h, 5 μM in data set [1] is > 90%; in data set [2] it was 34%; in data set [3], 64%.
Regarding `CCCCCCCCCCCCCCCC(=O)N[C@@H](CCC(=O)NCCOCCOCC(=O)NCCOCCOCC(=O)N[C@H](CCC(N)=O)C(=O)N[C@@H](CCCNC(=N)N)C(=O)N1CCC[C@H]1C(=O)N(C)[C@@H](CCCNC(=N)N)C(=O)N[C@@H](CC1CCCCC1)C(=O)N[C@@H](CO)C(=O)N[C@@H](Cc1c[nH]cn1)C(=O)N[C@@H](CCCCN)C(=O)NCC(=O)N1CCCC[C@H]1C(=O)N[C@@H](CCCC)C(=O)N1CCC[C@H]1C(=O)NC1(C(=O)O)Cc2ccccc2C1)C(=O)O` [compound 590] ({Palmitoyl-γGlu-AEEA-AEEA}-[dQ]RP[NMeR][Cha]SHKG[Pip][Nle]P[Aic]-OH), the figures for the amount remaining at 4 h, 5 μM in data set [1], in data set [2] and in data set [3] were 86%, 4% and 11%, respectively.
Consider `CCCCCCCCCCCCC(=O)N[C@@H](CCC(=O)NCCOCCOCC(=O)NCCOCCOCC(=O)N[C@@H](CCC(N)=O)C(=O)N[C@@H](CCCNC(=N)N)C(=O)N1CCC[C@H]1C(=O)N(C)[C@@H](CCCNC(=N)N)C(=O)N[C@@H](CC1CCCCC1)C(=O)N[C@@H](CO)C(=O)N[C@@H](Cc1c[nH]cn1)C(=O)N[C@@H](CCCCN)C(=O)NCC(=O)N1[C@H](C(=O)N[C@@H](CCCC)C(=O)N2CCC[C@H]2C(=O)N[C@@H](CC(=O)O)Cc2ccccc2)C[C@@H]2CCCC[C@@H]21)C(=O)O` [compound 380] ({Tridecanoyl-γGlu-AEEA-AEEA}-QRP[NMeR][Cha]SHKG[Oic][Nle]P[d(β3hF)]-OH), for which the results for the share remaining at 4 h, 5 μM in data set [1], in data set [2] and in data set [3] were 97%, 1% and 2%, respectively.
For `CCCCCCCCCCCCC(=O)N[C@@H](CCC(=O)NCCOCCOCC(=O)NCCOCCOCC(=O)N[C@@H](CCC(N)=O)C(=O)N[C@@H](CCCNC(=N)N)C(=O)N1CCC[C@H]1C(=O)N(C)[C@@H](CCCNC(=N)N)C(=O)N[C@@H](CC1CCCCC1)C(=O)N[C@@H](CO)C(=O)N[C@@H](Cc1c[nH]cn1)C(=O)N[C@@H](CCCCN)C(=O)NCC(=O)N1CCC[C@H]1C(=O)N[C@@H](CCCC)C(=O)N1CCC[C@H]1C(=O)N[C@@H](Cc1ccc(Cl)cc1)C(=O)O)C(=O)O` [compound 361] ({Tridecanoyl-γGlu-AEEA-AEEA}-QRP[NMeR][Cha]SHKGP[Nle]P[Phe(4-Cl)]-OH) the same measures were 34.5%, 0.5% and 1.5%.
Turning to `CCCCCCCCCCCCC(=O)N[C@@H](CCC(=O)NCCOCCOCC(=O)NCCOCCOCC(=O)N[C@@H](CCCNC(=N)N)C(=O)N[C@@H](CCC(N)=O)C(=O)N[C@@H](CCCC)C(=O)N1CCC[C@H]1C(=O)N[C@@H](CCCCNC(=N)N)C(=O)N[C@@H](CC1CCCCC1)C(=O)N[C@@H](CO)C(=O)N[C@@H](Cc1c[nH]cn1)C(=O)N[C@@H](CCCCN)C(=O)NCC(=O)N1[C@H](C(=O)N[C@@H](CCCC)C(=O)N2CCC[C@H]2C(=O)N[C@@H](Cc2ccc(Cl)cc2)C(=O)O)C[C@@H]2CCCC[C@@H]21)C(=O)O` [compound 339] ({Tridecanoyl-γGlu-AEEA-AEEA}-RQ[Nle]P[hArg][Cha]SHKG[Oic][Nle]P[Phe(4-Cl)]-OH), the share remaining at 4 h, 5 μM in data set [1] turned out to be 93%; in data set [2] it was 2%; in data set [3] it was 13%.
Consider “110 (QRPRLSHKGPMPF; source: /note="N-term MerPr(10KmPEGacetamide)") [compound 110]”, for which the “Stability at 4 hours (% Remaining) Plasma” value in data set [1] (4 h, 5 μM) was 36 % Remaining. In addition, in data set [2] (4 h, 5 μM), the “Stability at 4 hours (% Remaining) Kidney” value was 27 % Remaining. In addition, in data set [3] (4 h, 5 μM), the “Stability at 4 hours (% Remaining) Liver” value came out at 61 % Remaining.
In the case of `CCCCCCCCCCCCC(=O)N[C@@H](CCC(=O)NCCOCCOCC(=O)NCCOCCOCC(=O)N[C@@H](CCCNC(=N)N)C(=O)N[C@@H](CCC(N)=O)C(=O)N[C@@H](CCCNC(=N)N)C(=O)N1CCC[C@H]1C(=O)N[C@@H](CCCC)C(=O)N[C@@H](CC1CCCCC1)C(=O)N[C@@H](C)C(=O)N[C@@H](Cc1c[nH]cn1)C(=O)N[C@@H](CCCCN)C(=O)NCC(=O)N1[C@H](C(=O)N[C@@H](CCCC)C(=O)N2CCC[C@H]2C(=O)N[C@@H](Cc2ccc(Cl)cc2)C(=O)O)C[C@@H]2CCCC[C@@H]21)C(=O)O` [compound 344] ({Tridecanoyl-γGlu-AEEA-AEEA}-RQRP[Nle][Cha]AHKG[Oic][Nle]P[Phe(4-Cl)]-OH), the amount remaining at 4 h, 5 μM in data set [1] worked out at 88%; in data set [2] it was 0%; in data set [3] it was 6%.
On the same counts, the results for `CCCCCC(=O)N[C@@H](CCC(=O)NCCOCCOCC(=O)NCCOCCOCC(=O)N[C@@H](CCC(N)=O)C(=O)N[C@@H](CCCNC(=N)N)C(=O)N1CCC[C@H]1C(=O)N(C)[C@@H](CCCNC(=N)N)C(=O)N[C@@H](CC1CCCCC1)C(=O)N[C@@H](CO)C(=O)N[C@@H](Cc1c[nH]cn1)C(=O)N[C@@H](CCCCN)C(=O)NCC(=O)N1[C@H](C(=O)N[C@@H](CCCC)C(=O)NC(C)(C)C(=O)N[C@@H](Cc2ccc(Cl)cc2)C(=O)O)C[C@@H]2CCCC[C@@H]21)C(=O)O` [compound 562] ({Hexanoyl-γGlu-AEEA-AEEA}-QRP[NMeR][Cha]SHKG[Oic][Nle][Aib][Phe(4-Cl)]-OH) are > 90%, < 1% and 4%.
For `CCCCCCCCCCCCC(=O)N[C@@H](CCC(=O)NCCOCCOCC(=O)NCCOCCOCC(=O)N[C@H](CCC(N)=O)C(=O)N[C@@H](CCCNC(=N)N)C(=O)N1CCC[C@H]1C(=O)N(C)[C@@H](CCCNC(=N)N)C(=O)N[C@@H](CC1CCCCC1)C(=O)N[C@@H](CO)C(=O)N[C@@H](Cc1c[nH]cn1)C(=O)N[C@@H](CCCCN)C(=O)NCC(=O)N1[C@H](C(=O)N[C@@H](CCCC)C(=O)N2CCC[C@H]2C(=O)N[C@@H](Cc2ccc(Cl)cc2)C(=O)O)C[C@@H]2CCCC[C@@H]21)C(=O)O` [compound 377] ({Tridecanoyl-γGlu-AEEA-AEEA}-[dQ]RP[NMeR][Cha]SHKG[Oic][Nle]P[Phe(4-Cl)]-OH) the same measures were 65%, 99% and 4%.
For `CCCCCCCCCCCCC(=O)N[C@@H](CCC(=O)NCCOCCOCC(=O)NCCOCCOCC(=O)N[C@@H](CCC(N)=O)C(=O)N[C@@H](CCCNC(=N)N)C(=O)N1CCC[C@H]1C(=O)N(C)[C@@H](CCCNC(=N)N)C(=O)N[C@H](CC(=O)N[C@@H](CO)C(=O)N[C@@H](Cc1c[nH]cn1)C(=O)N[C@@H](CCCCN)C(=O)NCC(=O)N1[C@H](C(=O)N[C@@H](CCCC)C(=O)N2CCC[C@H]2C(=O)N[C@@H](Cc2ccc(Cl)cc2)C(=O)O)C[C@@H]2CCCC[C@@H]21)C(C)C)C(=O)O` [compound 391] ({Tridecanoyl-γGlu-AEEA-AEEA}-QRP[NMeR][β3hV]SHKG[Oic][Nle]P[Phe(4-Cl)]-OH) the same measures were 2%, 2% and 5%.
With `CCCCCCCCCCCCC(=O)N[C@@H](CCC(=O)NCCOCCOCC(=O)NCCOCCOCC(=O)N[C@@H](CCC(N)=O)C(=O)N[C@@H](CCCNC(=N)N)C(=O)N1CCC[C@H]1C(=O)N[C@@H](CCCCNC(=N)N)C(=O)N[C@@H](CC(C)C)C(=O)N[C@@H](CO)C(=O)N[C@@H](Cc1c[nH]cn1)C(=O)N[C@@H](CCCCN)C(=O)NCC(=O)N1[C@H](C(=O)N[C@@H](CCCC)C(=O)N2CCC[C@H]2C(=O)N[C@@H](Cc2ccc(Cl)cc2)C(=O)O)C[C@@H]2CCCC[C@@H]21)C(=O)O` [compound 356] ({Tridecanoyl-γGlu-AEEA-AEEA}-QRP[hArg]LSHKG[Oic][Nle]P[Phe(4-Cl)]-OH), the results for the fraction remaining at 4 h, 5 μM in data set [1], in data set [2] and in data set [3] were 87%, 0% and 2%, respectively.
Take `CCCCCCCCCCCCCCCCC(=O)N[C@@H](CCC(=O)NCCOCCOCC(=O)NCCOCCOCC(=O)N[C@@H](CCC(N)=O)C(=O)N[C@@H](CCCNC(=N)N)C(=O)N1CCC[C@H]1C(=O)N(C)[C@@H](CCCNC(=N)N)C(=O)N[C@@H](CC(C)C)C(=O)N[C@@H](CO)C(=O)N[C@@H](Cc1c[nH]cn1)C(=O)N[C@@H](CCCCN)C(=O)NCC(=O)N1CCC[C@H]1C(=O)N[C@@H](CCCC)C(=O)N1CCC[C@H]1C(=O)N[C@@H](Cc1ccc(Cl)cc1)C(=O)O)C(=O)O` [compound 496]: the figures for the fraction remaining at 4 h, 5 μM in data set [1], in data set [2] and in data set [3] were 86%, < 1% and 3%, respectively.
Turning to `CCCCCCCCCCCCC(=O)N[C@@H](CCC(=O)NCCOCCOCC(=O)NCCOCCOCC(=O)N[C@H](CCC(N)=O)C(=O)N[C@@H](CCCNC(=N)N)C(=O)N1CCC[C@@]1(C)C(=O)N[C@@H](CCCCNC(=N)N)C(=O)N[C@H](CC(=O)N[C@@H](CO)C(=O)N[C@@H](Cc1c[nH]cn1)C(=O)N[C@@H](CCCCN)C(=O)NCC(=O)N1CCCC[C@H]1C(=O)N[C@@H](CCCC)C(=O)N1CCC[C@@]1(C)C(=O)N[C@@H](Cc1ccc(Cl)cc1)C(=O)O)C(C)C)C(=O)O` [compound 503] ({Tridecanoyl-γGlu-AEEA-AEEA}-[dQ]R[αMeP][hArg][β3hV]SHKG[Pip][Nle][αMeP][Phe(4-Cl)]-OH), the figures for the fraction remaining at 4 h, 5 μM in data set [1], in data set [2] and in data set [3] were 85%, 2% and 7%, respectively.

One may read the amount remaining as the share of the starting amount still present when the sample was taken. A lower amount remaining goes with more turnover.
